Laboratory results: the NIST ThermoML archive (doi:10.1016/j.jct.2007.11.013)

Assay: xn = mol fraction of the nth substance listed
Details: Liquid, Bellows volumetry

CC(C)C [2-methylpropane] + CCCC
mass density [kg/m3]
Details	280 K	320 K	360 K	400 K	440 K
1000 kPa, x2 = 0.2656	580.73	530.15	–	–	–
1000 kPa, x2 = 0.4913	585.41	535.84	–	–	–
1000 kPa, x2 = 0.7508	589.56	541.44	–	–	–
2000 kPa, x2 = 0.2656	582.43	532.88	469.97	–	–
2000 kPa, x2 = 0.4913	586.92	538.41	478.17	–	–
2000 kPa, x2 = 0.7508	590.9	543.79	–	–	–
3000 kPa, x2 = 0.2656	583.92	535.39	475.52	–	–
3000 kPa, x2 = 0.4913	588.36	540.81	483.1	385.11	–
3000 kPa, x2 = 0.7508	592.32	546.12	490.53	402.2	–
5000 kPa, x2 = 0.2656	587.09	540.14	484.88	406.75	–
5000 kPa, x2 = 0.4913	591.12	545.4	491.8	417.26	–
5000 kPa, x2 = 0.7508	594.99	550.35	498.56	427.6	–
10000 kPa, x2 = 0.2656	593.89	550.53	502.82	446.63	376.07
10000 kPa, x2 = 0.4913	597.45	555.38	508.78	453.53	384.46
10000 kPa, x2 = 0.7508	601.36	559.85	514.37	460.33	393.12
20000 kPa, x2 = 0.2656	605.71	567.26	527.7	485.47	441.9
20000 kPa, x2 = 0.4913	608.98	571.45	532.51	490.78	447.31
20000 kPa, x2 = 0.7508	612.32	575.19	537.18	495.66	452.37
30000 kPa, x2 = 0.2656	615.41	580.65	545.48	509.52	474.54
30000 kPa, x2 = 0.4913	618.89	584.41	549.98	514.15	479.02
30000 kPa, x2 = 0.7508	621.81	587.77	554.09	518.42	483.18
40000 kPa, x2 = 0.2656	624.41	591.82	559.82	527.48	497.07
40000 kPa, x2 = 0.4913	627.45	595.5	563.9	531.91	501.25
40000 kPa, x2 = 0.7508	630.16	598.52	567.64	535.63	504.89
50000 kPa, x2 = 0.2656	632.48	601.55	571.85	542.19	514.8
50000 kPa, x2 = 0.4913	635.21	605.01	575.77	546.27	518.55
50000 kPa, x2 = 0.7508	637.79	607.82	579.14	549.67	521.88
60000 kPa, x2 = 0.2656	639.66	610.3	582.32	554.58	529.25
60000 kPa, x2 = 0.4913	642.4	613.74	586.24	558.4	532.82
60000 kPa, x2 = 0.7508	644.7	616.38	589.35	561.67	535.99
70000 kPa, x2 = 0.2656	646.31	618.47	591.65	565.35	541.79
70000 kPa, x2 = 0.4913	648.87	621.47	595.42	569.18	545.18
70000 kPa, x2 = 0.7508	650.96	623.97	598.27	572.18	548.23
80000 kPa, x2 = 0.2656	652.53	625.51	599.96	575	552.55
80000 kPa, x2 = 0.4913	654.98	628.69	603.53	578.67	556.07
80000 kPa, x2 = 0.7508	656.95	631.01	606.56	581.7	558.93
90000 kPa, x2 = 0.2656	658.15	632.18	607.66	583.7	562.49
90000 kPa, x2 = 0.4913	660.76	635.21	611.18	587.47	565.64
90000 kPa, x2 = 0.7508	662.63	637.49	613.96	590.11	568.41
100000 kPa, x2 = 0.2656	663.68	638.57	614.79	591.48	571.02
100000 kPa, x2 = 0.4913	666.14	641.34	618.14	595.11	574.54
100000 kPa, x2 = 0.7508	667.99	643.48	620.9	598.02	577.23
120000 kPa, x2 = 0.2656	673.84	649.73	627.56	605.85	586.73
120000 kPa, x2 = 0.4913	675.91	652.68	630.84	609.08	590.02
120000 kPa, x2 = 0.7508	677.69	654.79	633.4	611.77	592.51
140000 kPa, x2 = 0.2656	682.73	660.13	638.86	618.11	600.22
140000 kPa, x2 = 0.4913	685.03	662.76	642.02	621.57	603.26
140000 kPa, x2 = 0.7508	686.69	664.53	644.56	623.93	605.8
160000 kPa, x2 = 0.2656	691.28	669.26	649.01	628.97	612.2
160000 kPa, x2 = 0.4913	693.26	672	652.16	632.55	615.27
160000 kPa, x2 = 0.7508	694.86	673.62	654.38	634.89	617.59
180000 kPa, x2 = 0.2656	699.06	677.76	658.15	639.19	622.95
180000 kPa, x2 = 0.4913	700.72	680.38	661.25	642.45	625.93
180000 kPa, x2 = 0.7508	702.34	681.89	663.57	644.7	628.15
200000 kPa, x2 = 0.2656	706.05	685.47	666.71	648.34	632.67
200000 kPa, x2 = 0.4913	708	687.99	669.76	651.4	635.69
200000 kPa, x2 = 0.7508	709.43	689.51	672.02	653.9	637.8
